Experiment [1] has as its system Aeromonas enteropelogenes. Put plainly: Antimicrobial activity against Aeromonas enteropelogenes M1 hyperproducing beta-lactamase AmpC. In kind it is functional.
For experiment [2], the system named is Aeromonas enteropelogenes. The experiment in a line: Activity of Aeromonas enteropelogenes Beta-lactamase TRU1.
Experiment [3] deals with Escherichia coli. The experiment in a line: Antimicrobial activity against Escherichia coli TOP10. The class given is functional.
For experiment [4], the system named is Aeromonas caviae. The experiment in a line: Activity of Aeromonas caviae Beta-lactamase CAV1.
Experiment [5] deals with Aeromonas enteropelogenes. The experiment in a line: Ratio of Kcat Km for Aeromonas enteropelogenes Beta-lactamase TRU1.
For experiment [6], the system named is Aeromonas caviae. The experiment in a line: Ratio of Kcat Km for Aeromonas caviae Beta-lactamase CAV1.
Experiment [7] concerns Escherichia coli K-12. Put plainly: Activity of Escherichia coli K-12 Beta-lactamase AmpC.
For experiment [8], the system named is Escherichia coli K-12. The experiment in a line: Ratio of Kcat Km for Escherichia coli K-12 Beta-lactamase AmpC.
Experiment [9] concerns Aeromonas enteropelogenes. The experiment in a line: (§1) Inhibition of Aeromonas enteropelogenes Beta-lactamase TRU1.
The subject of experiment [10] is Aeromonas enteropelogenes. Put plainly: Activity of Aeromonas enteropelogenes Beta-lactamase TRU1 assessed as steady state compound hydrolysis rate.
The subject of experiment [11] is Aeromonas enteropelogenes. Put plainly: Ratio of Kcat Km for Aeromonas enteropelogenes Beta-lactamase TRU1 assessed as steady state compound hydrolysis rate.
For experiment [12], the system named is Escherichia coli. The experiment in a line: Antimicrobial activity against Escherichia coli NI540 carrying cloned class C beta-lactamase TRU-1 gene. The class given is functional.
The subject of experiment [13] is Aeromonas enteropelogenes. The experiment in a line: Antimicrobial activity against Aeromonas enteropelogenes ATCC 49803 producing endogenous class C beta-lactamase TRU-1. The class given is functional.
Experiment [14] can be described thus: as §1.

pKi: −log10 of the molar value. Converted amounts (≈) assume the structure as drawn.

From ChEMBL document CHEMBL1255416, “Genetic and biochemical characterization of TRU-1, the endogenous class C beta-lactamase from Aeromonas enteropelogenes” (Antimicrob Agents Chemother, 2010) come the findings set out here.

For `CO/N=C(\C(=O)N[C@@H]1C(=O)N2C(C(=O)[O-])=C(C[N+]3(C)CCCC3)CS[C@H]12)c1csc(N)n1`, the results for the MIC (in [1]; with Escherichia coli [3]) were 2 µg/mL (≈ 4.16 µM) and 0.03 µg/mL (≈ 0.0624 µM), respectively. Moreover, the figures for the Km (in [2]; in the experiment with Aeromonas caviae [4]) were 360 µM and 690 µM, respectively. Further, the catalytic constant (kcat) in experiment [2] was 9.4 s⁻¹; with Aeromonas caviae [4], 2.5 s⁻¹. Further, the kcat/Km came to 2.6 ×10⁴ /M/s in [5] and 3.6 ×10³ /M/s with Aeromonas caviae [6].
Consider `CC1(C)S[C@@H]2[C@H](NC(=O)[C@H](N)c3ccccc3)C(=O)N2[C@H]1C(=O)O`, for which the Km in experiment [2] was 0.72 µM; in the experiment on Escherichia coli K-12 [7], 3.5 µM. Besides, the kcat in experiment [2] is 0.63 s⁻¹; with Escherichia coli K-12 [7], 4.2 s⁻¹. Besides, the kcat/Km amounted to 8.8 ×10⁵ /M/s in experiment [5] and 1.2 ×10⁶ /M/s in the experiment on Escherichia coli K-12 [8].
For the molecule `CC1=C(C(=O)O)N2C(=O)[C@@H](NC(=O)[C@H](N)c3ccccc3)[C@H]2SC1`, in experiment [2], the Michaelis constant (Km) turned out to be 17 µM and the catalytic constant (kcat) came out at 160 s⁻¹. Moreover, in [5], the kcat/Km is 9.3 ×10⁶ /M/s.
Take `CO/N=C(\C(=O)N[C@@H]1C(=O)N2C(C(=O)O)=C(COC(N)=O)CS[C@H]12)c1ccco1`: the results for the kcat (in experiment [2]; in the experiment with Escherichia coli K-12 [7]) were 0.042 s⁻¹ and 0.15 s⁻¹, respectively. Further, in the experiment with Escherichia coli K-12 [7], the Km turned out to be 0.15 µM. Besides, the kcat/Km turned out to be 3.8 ×10⁶ /M/s in experiment [5] and 1 ×10⁶ /M/s in the experiment with Escherichia coli K-12 [8].
Turning to `CO/N=C(\C(=O)N[C@@H]1C(=O)N2C(C(=O)O)=C(CSc3nc(=O)c(O)nn3C)CS[C@H]12)c1csc(N)n1`, the turnover number (kcat) in experiment [2] was 0.042 s⁻¹. The Michaelis constant (Km) in experiment [9] came to 6 µM. Further, the kcat/Km in experiment [5] turned out to be 7 ×10⁵ /M/s.
As for `Cc1nnc(SCC2=C(C(=O)O)N3C(=O)[C@@H](NC(=O)Cn4cnnn4)[C@H]3SC2)s1`, the Km in [2] is 120 µM; in experiment [10], 80 µM. Also, the results for the kcat in experiment [2] and in experiment [10] were 0.55 s⁻¹ and 0.25 s⁻¹, respectively. The kcat/Km in experiment [5] stood at 4.6 ×10³ /M/s; in experiment [11], 3.1 ×10³ /M/s.
Consider `O=C(Cc1cccs1)N[C@@H]1C(=O)N2C(C(=O)[O-])=C(C[n+]3ccccc3)CS[C@H]12`, for which the Michaelis-Menten constant (Km) in [2] is more than 600 µM; in the experiment with Escherichia coli K-12 [7], 4 µM; in the experiment on Aeromonas caviae [4] it was 770 µM. Besides, the results for the catalytic constant (kcat) (in experiment [2]; in the experiment with Escherichia coli K-12 [7]; in the experiment on Aeromonas caviae [4]) were more than 100 s⁻¹, 38 s⁻¹ and 300 s⁻¹, respectively. Further, the kcat/Km in experiment [5] stood at 1.7 ×10⁵ /M/s; in the experiment on Escherichia coli K-12 [8], 9.5 ×10⁶ /M/s; with Aeromonas caviae [6], 3.9 ×10⁵ /M/s.
For `CC1(C)S[C@@H]2[C@H](NC(=O)[C@H](N)c3ccc(O)cc3)C(=O)N2[C@H]1C(=O)O` [AMOXICILLIN], the minimum inhibitory concentration (MIC) in [1] worked out at 4 µg/mL (≈ 10.9 µM); against Escherichia coli [3] it was 2 µg/mL (≈ 5.47 µM); against Escherichia coli [12], 32 µg/mL (≈ 87.6 µM); in experiment [13], 2 µg/mL (≈ 5.47 µM).
Consider `C[C@H]1[C@H](NC(=O)/C(=N\OC(C)(C)C(=O)O)c2csc(N)n2)C(=O)N1S(=O)(=O)O` [AZTREONAM], for which the MIC in experiment [1] was determined as 0.125 µg/mL (≈ 0.287 µM). Further, in experiment [2], the Km was more than 500 µM.
In the case of `CO/N=C(\C(=O)N[C@@H]1C(=O)N2C(C(=O)O)=C(COC(C)=O)CS[C@H]12)c1csc(N)n1` [CEFOTAXIME], the MIC in experiment [1] stood at 32 µg/mL (≈ 70.3 µM); in the experiment on Escherichia coli [3], 0.06 µg/mL (≈ 0.132 µM); against Escherichia coli [12] it was 8 µg/mL (≈ 17.6 µM); in [13] it was 0.032 µg/mL (≈ 0.0703 µM). The kcat in [2] was 0.015 s⁻¹; in the experiment on Escherichia coli K-12 [7] it was 0.17 s⁻¹; in the experiment on Aeromonas caviae [4], 0.2 s⁻¹. Besides, the values for the Km with Escherichia coli K-12 [7] and in the experiment on Aeromonas caviae [4] were 1.7 µM and 0.1 µM, respectively. The kcat/Km in experiment [5] came out at 1.7 ×10⁷ /M/s; in the experiment with Escherichia coli K-12 [8], 1 ×10⁵ /M/s; in the experiment with Aeromonas caviae [6] it was 2 ×10⁶ /M/s.
Regarding `CO[C@@]1(NC(=O)Cc2cccs2)C(=O)N2C(C(=O)O)=C(COC(N)=O)CS[C@@H]21` [CEFOXITIN], the MIC in experiment [1] amounted to 32 µg/mL (≈ 74.9 µM); against Escherichia coli [3], 4 µg/mL (≈ 9.36 µM); in the experiment with Escherichia coli [12], 128 µg/mL (≈ 299 µM); in experiment [13], 8 µg/mL (≈ 18.7 µM). Moreover, the values for the catalytic constant (kcat) (in experiment [2]; with Escherichia coli K-12 [7]; in the experiment with Aeromonas caviae [4]) were 0.88 s⁻¹, 0.2 s⁻¹ and 0.5 s⁻¹, respectively. Moreover, the Michaelis constant (Km) with Escherichia coli K-12 [7] was 0.65 µM; in the experiment with Aeromonas caviae [4], 0.4 µM; in [9], 0.025 µM. In addition, the kcat/Km in experiment [5] came out at 3.5 ×10⁷ /M/s; in the experiment on Escherichia coli K-12 [8] it was 3 ×10⁵ /M/s; in the experiment with Aeromonas caviae [6] it was 1.3 ×10⁶ /M/s.
In the case of `CO/N=C(\C(=O)N[C@@H]1C(=O)N2C(C(=O)[O-])=C(C[n+]3cccc4c3CCC4)CS[C@H]12)c1csc(N)n1` [CEFPIROME], the minimum inhibitory concentration (MIC) in experiment [1] was 4 µg/mL (≈ 7.77 µM); against Escherichia coli [3] it was 0.03 µg/mL (≈ 0.0583 µM); against Escherichia coli [12], 0.5 µg/mL (≈ 0.972 µM); in experiment [13] it was 0.125 µg/mL (≈ 0.243 µM). For the same molecule, in experiment [2], the Km was 85 µM. For the same molecule, in experiment [2], the kcat is 23 s⁻¹. For the same molecule, the kcat/Km in experiment [5] turned out to be 2.7 ×10⁵ /M/s.
With `CC(C)(O/N=C(\C(=O)N[C@@H]1C(=O)N2C(C(=O)[O-])=C(C[n+]3ccccc3)CS[C@H]12)c1csc(N)n1)C(=O)O` [CEFTAZIDIME], the minimum inhibitory concentration (MIC) stood at 16 µg/mL (≈ 29.3 µM) in experiment [1], 0.125 µg/mL (≈ 0.229 µM) against Escherichia coli [3], 8 µg/mL (≈ 14.6 µM) against Escherichia coli [12] and 0.125 µg/mL (≈ 0.229 µM) in experiment [13]. Further, the kcat in experiment [2] is 0.11 s⁻¹; in the experiment on Aeromonas caviae [4] it was 0.2 s⁻¹. Further, the Km with Aeromonas caviae [4] was 0.6 µM; in [9] it was 0.12 µM. Further, the values for the kcat/Km (in experiment [5]; with Aeromonas caviae [6]) were 9.2 ×10⁵ /M/s and 3.3 ×10⁵ /M/s, respectively.
Turning to `CC(=O)OCC1=C(C(=O)O)N2C(=O)[C@@H](NC(=O)Cc3cccs3)[C@H]2SC1` [CEPHALOTHIN], the minimum inhibitory concentration (MIC) in [1] was more than 256 µg/mL; in the experiment on Escherichia coli [3], 4 µg/mL (≈ 10.1 µM); with Escherichia coli [12], 256 µg/mL (≈ 646 µM); in [13], more than 256 µg/mL. The Michaelis-Menten constant (Km) in experiment [2] was 45 µM; in the experiment on Escherichia coli K-12 [7] it was 42 µM; in the experiment on Aeromonas caviae [4], 500 µM. Also, the kcat in experiment [2] was found to be 470 s⁻¹; in the experiment with Escherichia coli K-12 [7] it was 300 s⁻¹; in the experiment on Aeromonas caviae [4] it was 540 s⁻¹. Besides, the kcat/Km in experiment [5] is 1 ×10⁷ /M/s; with Escherichia coli K-12 [8], 7 ×10⁶ /M/s; in the experiment on Aeromonas caviae [6] it was 1.1 ×10⁶ /M/s.
Regarding `C[C@@H](O)[C@H]1C(=O)N2C(C(=O)O)=C(SCCNC=N)C[C@H]12` [IMIPENEM ANHYDROUS], the results for the MIC (in experiment [1]; against Escherichia coli [12]; in [13]) were 0.125 µg/mL (≈ 0.418 µM), 0.25 µg/mL (≈ 0.835 µM) and 0.125 µg/mL (≈ 0.418 µM), respectively. Besides, the Km in [2] is more than 500 µM.
Regarding `CC1(C)S[C@@H]2[C@H](NC(=O)Cc3ccccc3)C(=O)N2[C@H]1C(=O)O` [PENICILLIN G], the catalytic constant (kcat) was 27 s⁻¹ in experiment [2], 45 s⁻¹ with Escherichia coli K-12 [7] and 5 s⁻¹ in the experiment on Aeromonas caviae [4]. In addition, the Michaelis constant (Km) in the experiment with Escherichia coli K-12 [7] turned out to be 4.4 µM; in the experiment on Aeromonas caviae [4], 8.7 µM. The same molecule gave a negative-log Ki (pKi) in [14] of 5.70. The kcat/Km in experiment [5] was 1.4 ×10⁷ /M/s; in the experiment with Escherichia coli K-12 [8], 1 ×10⁷ /M/s; in the experiment on Aeromonas caviae [6], 5.7 ×10⁵ /M/s.
Take `CCN1CCN(C(=O)N[C@@H](C(=O)N[C@@H]2C(=O)N3[C@@H]2SC(C)(C)[C@@H]3C(=O)O)c2ccccc2)C(=O)C1=O` [PIPERACILLIN]: the MIC in experiment [1] is 4 µg/mL (≈ 7.73 µM); in the experiment with Escherichia coli [3] it was 1 µg/mL (≈ 1.93 µM); against Escherichia coli [12], 8 µg/mL (≈ 15.5 µM); in experiment [13], 0.25 µg/mL (≈ 0.483 µM). Besides, in experiment [2], the catalytic constant (kcat) was 0.54 s⁻¹. The molecule further showed a pKi in experiment [14] of 6.70. The kcat/Km in experiment [5] came to 2.7 ×10⁶ /M/s.
For `CC1(C)S[C@@H]2[C@H](NC(=O)[C@H](C(=O)O)c3ccsc3)C(=O)N2[C@H]1C(=O)O` [TICARCILLIN], the MIC was 8 µg/mL (≈ 20.8 µM) in experiment [1], 4 µg/mL (≈ 10.4 µM) against Escherichia coli [3], 64 µg/mL (≈ 166 µM) in the experiment on Escherichia coli [12] and 0.125 µg/mL (≈ 0.325 µM) in experiment [13].

What is called MIC is the smallest concentration in the dilution series that meets the test's criterion for growth inhibition. Usually Km stands for the substrate concentration at which the rate is half of its maximum. For orientation: kcat means the number of substrate molecules converted per active site and unit of time at saturation. A word on the pKi: it is the Ki on a negative log10 scale, so that one unit is a factor of ten. Higher therefore signals a low Ki.
